Data from ChEMBL document CHEMBL1201862, “PubChem BioAssay data set” (2004).
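How tested: cells in 96-well plates exposed to compound for 48 hours at five concentrations. The concentration for 50% growth inhibition is given as GI50.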 Active and inactive are the calls of the source. Cut-off read from the data, not from the text of the source: active = GI50 up to about 1.1 µM and inactive = higher.

What was measured:
Assay in all cases: DTP human tumour cell line panel, 48 h
EKVX = test system: EKVX
HCT-116 = test system: HCT-116
HOP-92 = test system: HOP-92
KM12 = test system: KM12
LOX IMVI = test system: LOX IMVI
MCF7 = test system: MCF7
MDA-MB-231 = test system: MDA-MB-231
MDA-MB-435 = test system: MDA-MB-435
MOLT-4 = test system: MOLT-4
OVCAR-3 = test system: OVCAR-3
OVCAR-4 = test system: OVCAR-4
SK-MEL-2 = test system: SK-MEL-2
SK-MEL-5 = test system: SK-MEL-5
SNB-75 = test system: SNB-75
SR = test system: SR
SW-620 = test system: SW-620
TK-10 = test system: TK-10
UACC-257 = test system: UACC-257
HL-60 = test system: HL-60
RXF 393 = test system: RXF 393

Measured: GI50

Clc1sc(Cl)c2c1[C@@H](Cl)C[C@@H]2Cl
inactive: EKVX 62.5 µM | HCT-116 53.5 µM | HOP-92 37.4 µM | KM12 > 100 µM | LOX IMVI 49.4 µM | MCF7 52.4 µM | MDA-MB-231 > 100 µM | MDA-MB-435 92 µM | MOLT-4 46.6 µM | OVCAR-3 > 100 µM | OVCAR-4 74.3 µM | SK-MEL-2 > 100 µM | SK-MEL-5 > 100 µM | SNB-75 33.3 µM | SR 33.6 µM | SW-620 57.1 µM | TK-10 > 100 µM | UACC-257 > 100 µM

CCOC(=O)c1c(O)nc(O)c(CC)c1C
inactive: EKVX > 100 µM | HCT-116 > 100 µM | HL-60 > 100 µM | HOP-92 > 100 µM | KM12 > 100 µM | LOX IMVI > 100 µM | MCF7 > 100 µM | MDA-MB-231 > 100 µM | MDA-MB-435 > 100 µM | MOLT-4 > 100 µM | OVCAR-3 > 100 µM | OVCAR-4 > 100 µM | RXF 393 > 100 µM | SK-MEL-2 > 100 µM | SK-MEL-5 > 100 µM | SNB-75 > 100 µM | SW-620 > 100 µM | TK-10 > 100 µM | UACC-257 > 100 µM

CC(=O)N1c2ccccc2Sc2cc(C(O)(C(F)(F)F)C(F)(F)F)ccc21
inactive: EKVX > 10 µM | HCT-116 > 10 µM | HL-60 > 10 µM | HOP-92 4.66 µM | KM12 > 10 µM | LOX IMVI > 10 µM | MCF7 > 10 µM | MDA-MB-231 > 10 µM | MDA-MB-435 > 10 µM | MOLT-4 > 10 µM | OVCAR-3 > 10 µM | OVCAR-4 > 10 µM | RXF 393 > 10 µM | SK-MEL-2 > 10 µM | SK-MEL-5 7.26 µM | SNB-75 9.59 µM | SW-620 > 10 µM | TK-10 > 10 µM | UACC-257 > 10 µM

Nc1c(C(=O)O)nnc2ccc(Cl)cc12
inactive: EKVX > 100 µM | HCT-116 > 100 µM | HL-60 > 100 µM | KM12 > 100 µM | LOX IMVI > 100 µM | MCF7 > 100 µM | MDA-MB-231 > 100 µM | MDA-MB-435 > 100 µM | MOLT-4 > 100 µM | OVCAR-3 > 100 µM | OVCAR-4 > 100 µM | SK-MEL-2 > 100 µM | SK-MEL-5 > 100 µM | SNB-75 > 100 µM | SR > 100 µM | SW-620 > 100 µM | TK-10 > 100 µM | UACC-257 > 100 µM
